Test results from paper PMC8164802, “Biological evaluation of Safrole oil and Safrole oil Nanoemulgel as antioxidant, antidiabetic, antibacterial, antifungal and anticancer” (BMC Complementary Medicine and Therapies, 2021).

Target: T1, porcine pancreatic α-amylase (Sus scrofa, UniProt P00690)
T1 construct: gene AMY2
Experiment: DNSA colorimetric assay of starch hydrolysis, […] nm
Assay type: biochemical

T1 sequence (P00690 16-511): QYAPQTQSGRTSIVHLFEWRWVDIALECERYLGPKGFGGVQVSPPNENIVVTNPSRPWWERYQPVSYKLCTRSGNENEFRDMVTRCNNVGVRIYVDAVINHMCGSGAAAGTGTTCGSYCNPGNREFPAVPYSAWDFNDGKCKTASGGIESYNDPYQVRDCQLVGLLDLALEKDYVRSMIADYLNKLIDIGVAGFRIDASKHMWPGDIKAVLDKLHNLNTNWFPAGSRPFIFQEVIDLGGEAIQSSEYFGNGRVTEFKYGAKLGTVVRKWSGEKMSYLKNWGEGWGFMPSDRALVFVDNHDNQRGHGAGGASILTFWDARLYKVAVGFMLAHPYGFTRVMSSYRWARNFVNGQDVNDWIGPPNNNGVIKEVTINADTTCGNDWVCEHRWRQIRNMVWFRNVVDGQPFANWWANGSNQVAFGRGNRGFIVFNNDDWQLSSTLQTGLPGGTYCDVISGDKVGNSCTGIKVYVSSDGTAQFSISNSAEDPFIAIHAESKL

SMILES: C=CCc1ccc2c(c1)OCO2 [Safrole, 1-allyl-3,4-methylenedioxybenzene]
- IC50: 70 µM
